What is called Tmax is the time at which the peak concentration occurs.

The results in this text go back to publication PMC12477777, “Human exposure to green spaces and monoterpenes: discovery and use of α-pinene metabolites as biomarkers” (Environment international, 2025).

Series [1] can be described thus: aPM in mouse urine after i.p. injection of (+)-α-pinene or (−)-α-pinene. The class given is in vivo, mice (C57BL/6). The settings on record: for (1R)-(+)-α-Pinene (Average), proportion of aPM in mouse urine / (1S)-(−)-α-Pinene (Average), proportion of aPM in mouse urine: 50 mg/kg; for R/(R+S): mouse urine, enantiomer specificity. The method, then:
Mouse urine was collected after exposures to either (+) or (−) α-pinene to distinguish between metabolites of different enantiomers of α-pinene. Adult male mice (C57BL/6) were intraperitoneally administered with 50 mg/kg body weight of (+)-α-pinene or (−)-α-pinene dissolved in 100 μl sterile saline with 1 % Tween 80.

Series [2] in a line: Kinetic modeling of urinary aPM with a pseudo one-compartment nonlinear mixed-effects model after α-pinene inhalation. The settings on record: for F (%), fraction of metabolite generated from absorbed α-pinene: human urine after 10 min α-pinene inhalation, F normalized to the sum of 22 detected metabolites; for Elimination t1/2 / Ka, first-order generation constant / Ke, first-order elimination rate constant / half-life / k el: human urine after α-pinene inhalation, pseudo one-compartment model; for half-life / k el: inhaled or intranasal; for half-life: read-out: Elimination t1/2 (converted); for k el: read-out: Ke, first-order elimination rate constant (converted). The class given is in vivo, human. The text has this: In this equation, i represents the participant index, j the urine sample index, C the creatinine-normalized peak response, and t the sample collection time ( h).Ka denotes the first-order generation constant ( h^−1 ), and Ke denotes the first-order elimination rate constant h^−1 . F indicates the fraction of specific aPM relative to absorbed α-pinene. The variables D and V refer to the absorbed α-pinene amount and the distribution volume, respectively. Because input data were derived from relative quantification, absolute values of D , V , and F were not available. For simplicity, D and V were fixed at 100 and 1, respectively, and F was normalized relative to the sum of all detected aPM. The error term ε accounts for residual variation.

Series [3] in a line: Urinary aPM after 4 h greenness (forest) exposure. In kind it is in vivo, human. Particulars: for Frequency of occurrence / Maximum response: human urine, greenness exposure; for Proportion (observed) after greenness exposure: share of total aPM response. Set-up: Maximum response: unit not given here. The method, then:
(§1) Briefly, for controlled inhalation experiments, eight healthy volunteers were exposed to α-pinene in a custom-built exposure chamber via inhalation from a 15 ml conical tube, containing approximately 100 μl α-pinene, for a duration of 10 min. Urine samples were collected before exposure (0 h) and 0.5, 1, 2, 3, and 4 h after exposure. […] Urine samples were collected both before (0 h) or 4 h after exposure. After collection, the urine samples were centrifuged and stored at −80 °C before analysis. […] Demographic information, including sex, age and race, can be found in Table S1.
(§2) Briefly, after 1:10 dilution, urine samples were separated using an Acquity I-Class UPLC system with an Acquity Premier CSH C18 UPLC column (Waters, MA) with a gradient comprising 0.1 % formic acid in water as the solvent A and 0.1 % formic acid in acetonitrile as the solvent B. Mass Spectrometry Elevated Energy (MS^E) data were collected using a Waters Synapt XS MS (Waters, MA) with an ESI ion source operated in the negative mode. Subsequent analyses of raw files were performed using UNIFI 1.9 and Progenesis QI 3.0 (both from Waters, MA). To validate LC-MS performance, one quality control (QC) sample, prepared by pooling equal amount of each urine sample, was injected after every ten urine sample injections.
(§3) Relative quantification of aPM was performed based on the peak responses normalized to urinary creatinine levels. Urinary creatinine levels were measured using an Ace Axcel Clinical Chemistry System with ACE Creatinine Reagent from Alfa Wassermann (West Caldwell, NJ). Statistical analyses, including ANOVA and Student’s t-tests, were conducted using SAS 9.4 (SAS Institute, NC) to explore differences in aPM across various time points. […] A threshold for statistical significance was defined as p < 0.05.

Series [4] can be described thus: Relative quantification of urinary aPM (UPLC-QTOF-MS, creatinine-normalized) after controlled α-pinene inhalation. In kind it is in vivo, human. Particulars: for Frequency of occurrence (percentage of samples with analyte detected) / Maximum response (highest peak response across all urine samples) / Observed Tmax / Tmax: human urine after α-pinene inhalation; for Proportion (observed) after α-pinene inhalation: share of total response of 22 aPM, averaged over post-exposure samples; for Tmax: inhaled or intranasal, read-out: Observed Tmax. The method, then: as §1, §2, §3

The mark [5] stands for this setting: mouse urine collected overnight, 50 mg/kg i.p. (+)-α-pinene.
Setting [6] is: mouse urine collected overnight, 50 mg/kg i.p. (−)-α-pinene.
Where [7] appears, read: male, C57BL/6, mouse, in vivo, ip.

SMILES strings stand for the structures.

With `CC1(C)C2CC1C(OC1OC(C(=O)O)C(O)C(O)C1O)C=C2C(=O)O` (single isomer, unassigned) [aPM5b, Myrtenic acid-4-O-GlcA], in series [1] (setting [5]), the “(1R)-(+)-α-Pinene (Average), proportion of aPM in mouse urine” value (“(1R)-(+)-α-Pinene (Average), proportion” below) came to 0.0%. Besides, the “(1S)-(−)-α-Pinene (Average), proportion of aPM in mouse urine” value (“(1S)-(−)-α-Pinene (Average), proportion” below) in series [1] (setting [6]) was determined as 0.0%. In series [2], the “F (%), fraction of metabolite generated from absorbed α-pinene” value (“F (%), fraction of metabolite generated” below) is given as 1.46 ± 0.57%; the “Elimination t1/2” value came to 0.87 ± 0.34 h; the “Ka, first-order generation constant” value stood at 1.74 ± 0.84 h⁻¹; the “Ke, first-order elimination rate constant” value is 0.80 ± 0.31 h⁻¹. Moreover, in series [3], the Frequency of occurrence amounted to 6.3%, the Maximum response worked out at 89 and the “Proportion (observed) after greenness exposure” value was determined as 0.0%. Moreover, in series [4], the “Frequency of occurrence (percentage of samples with analyte detected)” value amounted to 91.7%, the “Maximum response (highest peak response across all urine samples)” value came to 22121, the “Observed Tmax” value was 1 h and the “Proportion (observed) after α-pinene inhalation” value amounted to 1.6%.
On to `CC1(C)C2CC1C(OC1OC(C(=O)O)C(O)C(O)C1O)C=C2C(=O)O` (single isomer, unassigned) [aPM5c, Myrtenic acid-4-O-GlcA], for which, in series [1] (setting [5]), the “(1R)-(+)-α-Pinene (Average), proportion” value was 0.0%. Besides, the “(1S)-(−)-α-Pinene (Average), proportion” value in series [1] (setting [6]) was determined as 0.0%. Moreover, in series [2], the “F (%), fraction of metabolite generated” value is reported as 1.28 ± 0.53%; the “Elimination t1/2” value turned out to be 0.88 ± 0.36 h; the “Ka, first-order generation constant” value was determined as 1.73 ± 0.89 h⁻¹; the “Ke, first-order elimination rate constant” value amounted to 0.79 ± 0.32 h⁻¹. In series [3], the Frequency of occurrence is 37.5%, the Maximum response was 136 and the “Proportion (observed) after greenness exposure” value is recorded as 0.7%. Further, in series [4], the “Frequency of occurrence (percentage of samples with analyte detected)” value stood at 79.2%, the “Maximum response (highest peak response across all urine samples)” value amounted to 25963, the “Observed Tmax” value was found to be 1 h and the “Proportion (observed) after α-pinene inhalation” value turned out to be 1.2%.
Take `CC1(C)C2CC1C(OC1OC(C(=O)O)C(O)C(O)C1O)C=C2C(=O)O` (single isomer, unassigned) [aPM5d, Myrtenic acid-4-O-GlcA]: the “(1R)-(+)-α-Pinene (Average), proportion” value in series [1] (setting [5]) is recorded as 0.2%. Moreover, the “(1S)-(−)-α-Pinene (Average), proportion” value in series [1] (setting [6]) was 0.0%. In series [1], the “R/(R+S)” value was 100%. In series [2], the “F (%), fraction of metabolite generated” value turned out to be 0.27 ± 0.09%; the “Elimination t1/2” value is reported as 1.31 ± 0.46 h; the “Ka, first-order generation constant” value came to 1.33 ± 0.51 h⁻¹; the “Ke, first-order elimination rate constant” value was 0.53 ± 0.19 h⁻¹. In series [3], the Frequency of occurrence turned out to be 0.0%. In series [4], the “Frequency of occurrence (percentage of samples with analyte detected)” value is on record as 81.3%, the “Maximum response (highest peak response across all urine samples)” value worked out at 5115, the “Observed Tmax” value came out at 1 h and the “Proportion (observed) after α-pinene inhalation” value was determined as 0.4%.
`CC1(C)C2CC1C(OC1OC(C(=O)O)C(O)C(O)C1O)C=C2C(=O)O` (single isomer, unassigned) [aPM5e, Myrtenic acid-4-O-GlcA]: in series [1] (setting [5]), the “(1R)-(+)-α-Pinene (Average), proportion” value is given as 0.0%. For the same compound, in series [1] (setting [6]), the “(1S)-(−)-α-Pinene (Average), proportion” value worked out at 0.3%. Moreover, the “R/(R+S)” value in series [1] is recorded as 0%. In series [2], the “F (%), fraction of metabolite generated” value was 0.38 ± 0.16%; the “Elimination t1/2” value worked out at 0.76 ± 0.28 h; the “Ka, first-order generation constant” value came to 0.91 ± 0.36 h⁻¹; the “Ke, first-order elimination rate constant” value was determined as 0.91 ± 0.34 h⁻¹. Moreover, in series [3], the Frequency of occurrence came out at 25.0%, the Maximum response is 93 and the “Proportion (observed) after greenness exposure” value is listed as 1.0%. In series [4], the “Frequency of occurrence (percentage of samples with analyte detected)” value turned out to be 72.9%, the “Observed Tmax” value was 1 h and the “Proportion (observed) after α-pinene inhalation” value is recorded as 0.3%.
On to `CC1(C)C2CC1C(OC1OC(C(=O)O)C(O)C(O)C1O)C=C2C(=O)O` (single isomer, unassigned) [aPM5f, Myrtenic acid-4-O-GlcA], for which, in series [1] (setting [5]), the “(1R)-(+)-α-Pinene (Average), proportion” value is recorded as 0.0%. The “(1S)-(−)-α-Pinene (Average), proportion” value in series [1] (setting [6]) is recorded as 0.0%. For the same compound, in series [2], the “F (%), fraction of metabolite generated” value is 0.29 ± 0.12%; the “Elimination t1/2” value is recorded as 0.95 ± 0.37 h; the “Ka, first-order generation constant” value was determined as 1.53 ± 0.71 h⁻¹; the “Ke, first-order elimination rate constant” value was found to be 0.73 ± 0.29 h⁻¹. Further, the Frequency of occurrence in series [3] was 0.0%. Also, in series [4], the “Frequency of occurrence (percentage of samples with analyte detected)” value stood at 87.5%, the “Maximum response (highest peak response across all urine samples)” value turned out to be 5543, the “Observed Tmax” value came out at 1 h and the “Proportion (observed) after α-pinene inhalation” value is 0.5%.
Consider `CC1(C)C2CC1C(OC1OC(C(=O)O)C(O)C(O)C1O)C=C2C(=O)O` (single isomer, unassigned) [aPM5g, Myrtenic acid-4-O-GlcA], for which the “(1R)-(+)-α-Pinene (Average), proportion” value in series [1] (setting [5]) stood at 0.0%. The “(1S)-(−)-α-Pinene (Average), proportion” value in series [1] (setting [6]) worked out at 0.0%. In series [2], the “F (%), fraction of metabolite generated” value was 5.10 ± 2.25%; the “Elimination t1/2” value is on record as 0.69 ± 0.29 h; the “Ka, first-order generation constant” value was determined as 1.62 ± 0.81 h⁻¹; the “Ke, first-order elimination rate constant” value came to 1.01 ± 0.43 h⁻¹. Besides, in series [3], the Frequency of occurrence is listed as 25.0%, the Maximum response came to 98 and the “Proportion (observed) after greenness exposure” value was found to be 0.4%. In addition, in series [4], the “Frequency of occurrence (percentage of samples with analyte detected)” value is on record as 100.0%, the “Maximum response (highest peak response across all urine samples)” value is listed as 77327, the “Observed Tmax” value was 1 h and the “Proportion (observed) after α-pinene inhalation” value stood at 4.4%.
Consider `CC1(C)C2CC1C(C(=O)O)=CC2=O` (stereo not shown) [aPM1, Myrtenic acid-4-one], for which, in series [1] (setting [7]), the “(1R)-(+)-α-Pinene (Average), proportion” value amounted to 0.1% and the “(1S)-(−)-α-Pinene (Average), proportion” value came out at 0.8%. In series [2], the “F (%), fraction of metabolite generated” value amounted to 1.15 ± 0.39%; the “Ka, first-order generation constant” value came out at 1.25 ± 0.43 h⁻¹; the half-life was 1.2 ± 0.38 h; the k el is 0.000161 s⁻¹. In series [3], the Frequency of occurrence was 31.3%, the Maximum response amounted to 3544 and the “Proportion (observed) after greenness exposure” value is on record as 1.3%. Further, in series [4], the “Frequency of occurrence (percentage of samples with analyte detected)” value amounted to 95.8%, the “Maximum response (highest peak response across all urine samples)” value worked out at 17385, the Tmax worked out at 1 h and the “Proportion (observed) after α-pinene inhalation” value is 1.8%.
Take `CC1=CC(OC2OC(C(=O)O)C(O)C(O)C2O)C2CC1C2(C)C` (stereo not shown) [aPM2b, verbenol glucuronide]: in series [1] (setting [7]), the “(1R)-(+)-α-Pinene (Average), proportion” value is listed as 50.5% and the “(1S)-(−)-α-Pinene (Average), proportion” value is on record as 34.4%. For the same compound, in series [1] (mouse, in vivo), the “Detection in mouse urine” value is listed as “present in murine samples”. Further, in series [2], the “F (%), fraction of metabolite generated” value was found to be 17.23 ± 3.91%; the “Ka, first-order generation constant” value turned out to be 3.46 ± 0.98 h⁻¹; the half-life was 0.59 ± 0.08 h; the k el is 0.000325 s⁻¹. Also, in series [3], the Frequency of occurrence turned out to be 6.3%, the Maximum response worked out at 171 and the “Proportion (observed) after greenness exposure” value was found to be 0.3%. Moreover, in series [4], the “Frequency of occurrence (percentage of samples with analyte detected)” value is 100.0% and the Tmax was found to be 0.5 h.
